According to publication PMC8557866, “Novel Small Molecule Growth Inhibitor Affecting Bacterial Outer Membrane Reduces Extraintestinal Pathogenic Escherichia coli (ExPEC) Infection in Avian Model” (Microbiology Spectrum, 2021):
Converted amounts (≈) assume the structure as drawn.

What was measured:
APEC O78 [1] = test system: APEC O78; set-up: method as in PMID 30333507; conditions: cited from earlier work
APEC serotype O78 = conditions: for Cumulative lesion score: PC 6.2; for Mortality reduction compared to PC group: PC mortality 58.3%; for % reduction in severity, Air sacs lesions / % reduction in severity, Heart lesions / % reduction in severity, Liver lesions / % reduction in severity, Lung lesions / log reduction in APEC load, Heart / log reduction in APEC load, Kidney / log reduction in APEC load, Liver / log reduction in APEC load, Lung: vs PC; for BWG (body weight gain): in vivo
Experimental: The efficacy of GIs was assessed using commercial broiler chickens (n = 6/group). […] GI compounds (ChemBridge, San Diego, CA) dissolved in dimethyl sulfoxide (DMSO) were administered orally using a syringe, twice a day, from day 4 (1 day before APEC infection) to day 8 (3 days postinfection [dpi]). The dose of each GI is described in Table S1. […] Chickens that were infected and vehicle-treated (positive control [PC]) and noninfected and nontreated (negative control [NC]) were included as controls. On day 5, chickens were infected subcutaneously (s.c.) with rifampin-resistant (Rif^r) APEC serotype O78 ([18]) (1 × 10^7 CFU/chicken). […] To prepare the APEC inoculum for infection, Rif^r APEC O78 (50 μg/ml rifampin) was grown to logarithmic phase in LB medium, washed twice with phosphate-buffered saline (PBS), and adjusted to an optical density at 600 nm (OD600) of 0.1 (5 × 10^7 CFU/ml). The clinical signs and mortality were recorded until 7 dpi. Chickens that died during this period were necropsied on the same day, lesions in internal organs (liver, heart, lung, and air sacs) were scored as described previously ([63], [71]), and the APEC loads were quantified in internal organs (liver, heart, lung, and kidney) by plating the tissue homogenates on MacConkey agar plates containing 50 μg/ml rifampin ([18]). At 7 dpi (day 12), all live birds were euthanized, lesions were scored, and the APEC loads in internal organs were quantified as described above. The body weight of chickens was measured before GI treatment (day 3) and at the day of necropsy (day 12).

APEC = experiment: microbe, parasite or virus in culture; format: cell-based, Escherichia coli; conditions: Escherichia coli
APEC O78 [2] = experiment: Comparative efficacy of GI-7 and sulfadimethoxine, floor trial; format: in vivo, commercial broiler chickens; set-up: % reduction in severity, Liver lesions / % reduction in severity, Heart lesions / % reduction in severity, Lung lesions / % reduction in severity, Air sacs lesions: concentration or dose not given beside the values; Cumulative lesion score / Mean lesion score in Liver / Mean lesion score in Heart / Mean lesion score in Lung / Mean lesion score in Air sacs: scale not given here
Experimental: At day 13 (7 dpi), half of the chickens from each group, and at day 42 (slaughter age), 10 chickens from each group were necropsied and lesions and APEC loads were assessed as described above.

[3] = Quantification of residue in chicken tissues (LC-MS); format: in vivo, chickens
Text: Chickens (n = 5/time point) from an experimental set-up as described above for the floor trial were sacrificed at 2 days (day 13; 2 DPLT), 5 days (day 16; 5 DPLT), and 31 days (day 42; 31 DPLT) post-last treatment. […] Tissue samples from chickens treated with SDM were used for comparison. […] Details of the methods are included in the supplemental material.

[4] = Pharmacokinetic study in plasma of chickens (LC-MS); format: in vivo; conditions: plasma
Experimental: Details of the methods are included in the supplemental material. page 3: previously(3). […] The mixtures were then incubated at […] for 30 min and proteins were removed by ultracentrifugation at 13,000xg for 25 min at 2 °C.

[5] = comparative efficacy trial, vs PC
[6] = comparative efficacy, GI-7 60 mg/liter, SDM 495.3 mg/liter, 7 dpi

## CC1CCCN(CCC(=O)c2ccc(Br)cc2)C1 (stereo not shown) [GI-1]
APEC O78 [1]
  MIC: 200 µM (≈ 62 µg/mL)
APEC serotype O78; efficacy trial, oral
  Mean APEC load, Heart: 6.8 Log CFU/g tissues
  Mean APEC load, Kidney: 6.6 Log CFU/g tissues
  Mean APEC load, Liver: 6.7 Log CFU/g tissues
  Mean APEC load, Lung: 6.4 Log CFU/g tissues
  Mean lesion score in Air sacs: 1.5
  Mean lesion score in Heart: 2.0
  Mean lesion score in Liver: 2.0
  Mean lesion score in Lung: 0.7
  Cumulative lesion score: 6.2
  Mortality reduction compared to PC group: 8.3%
  % reduction in severity, Air sacs lesions: −5.9%
  % reduction in severity, Heart lesions: 4%
  % reduction in severity, Liver lesions: −20%
  % reduction in severity, Lung lesions: 33.3%
  log reduction in APEC load, Heart: -1.8 Log CFU/g tissues
  log reduction in APEC load, Kidney: -1.1 Log CFU/g tissues
  log reduction in APEC load, Liver: -2.0 Log CFU/g tissues
  log reduction in APEC load, Lung: -1.4 Log CFU/g tissues
APEC serotype O78
  BWG (body weight gain): 165.6±69.2

## COc1cc(CNCCc2ccc3ccccc3c2)ccc1OCC(O)CN1CCCC1 (stereo not shown) [GI-2]
APEC O78 [1]
  MIC: 100 µM (≈ 43.5 µg/mL)
APEC serotype O78; efficacy trial, oral
  Mean APEC load, Heart: 4.1 Log CFU/g tissues
  Mean APEC load, Kidney: 3.8 Log CFU/g tissues
  Mean APEC load, Liver: 3.4 Log CFU/g tissues
  Mean APEC load, Lung: 3.5 Log CFU/g tissues
  Mean lesion score in Air sacs: 1.2
  Mean lesion score in Heart: 1.8
  Mean lesion score in Liver: 1.7
  Mean lesion score in Lung: 0.7
  Cumulative lesion score: 5.3
  Mortality reduction compared to PC group: 25%
  % reduction in severity, Air sacs lesions: 17.7%
  % reduction in severity, Heart lesions: 12%
  % reduction in severity, Liver lesions: 0%
  % reduction in severity, Lung lesions: 33.3%
  log reduction in APEC load, Heart: 0.8 Log CFU/g tissues
  log reduction in APEC load, Kidney: 1.7 Log CFU/g tissues
  log reduction in APEC load, Liver: 0.9 Log CFU/g tissues
  log reduction in APEC load, Lung: 1.1 Log CFU/g tissues
APEC serotype O78
  BWG (body weight gain): 125.5±34.7

## COc1cc(CNCCc2ccc(C)cc2)ccc1OCC(O)CN1CCCC1 (stereo not shown) [GI-3]
APEC O78 [1]
  MIC: 100 µM (≈ 39.9 µg/mL)
APEC serotype O78; efficacy trial, oral
  Mean APEC load, Heart: 7.0 Log CFU/g tissues
  Mean APEC load, Kidney: 6.9 Log CFU/g tissues
  Mean APEC load, Liver: 6.5 Log CFU/g tissues
  Mean APEC load, Lung: 7.0 Log CFU/g tissues
  Mean lesion score in Air sacs: 1.8
  Mean lesion score in Heart: 2
  Mean lesion score in Liver: 2
  Mean lesion score in Lung: 1
  Cumulative lesion score: 6.8
  % reduction in severity, Air sacs lesions: −29.4%
  % reduction in severity, Heart lesions: 4%
  % reduction in severity, Liver lesions: −20%
  % reduction in severity, Lung lesions: 0%
  log reduction in APEC load, Heart: -2.1 Log CFU/g tissues
  log reduction in APEC load, Kidney: -1.4 Log CFU/g tissues
  log reduction in APEC load, Liver: -1.8 Log CFU/g tissues
  log reduction in APEC load, Lung: -2.0 Log CFU/g tissues
APEC serotype O78
  BWG (body weight gain): 254.6±95

## CCN1/C(=C/c2ccc3ccccc3[n+]2CC)C=Cc2ccccc21 [GI-9]
APEC O78 [1]
  MIC: 25 µM
APEC serotype O78; efficacy trial, oral
  Mean APEC load, Heart: 5.9 Log CFU/g tissues
  Mean APEC load, Kidney: 5.7 Log CFU/g tissues
  Mean APEC load, Liver: 4.7 Log CFU/g tissues
  Mean APEC load, Lung: 5.6 Log CFU/g tissues
  Mean lesion score in Air sacs: 2.7
  Mean lesion score in Heart: 3.3
  Mean lesion score in Liver: 2.5
  Cumulative lesion score: 9.7
  Mortality reduction compared to PC group: 25%
  % reduction in severity, Air sacs lesions: −88.2%
  % reduction in severity, Heart lesions: −60%
  % reduction in severity, Liver lesions: −50%
  log reduction in APEC load, Heart: -0.5 Log CFU/g tissues
  log reduction in APEC load, Kidney: -0.2 Log CFU/g tissues
  log reduction in APEC load, Liver: -0.1 Log CFU/g tissues
  log reduction in APEC load, Lung: -0.9 Log CFU/g tissues
APEC serotype O78
  BWG (body weight gain): 214.9±31.9

## CC(=O)OC(C(Br)C(=O)c1ccc([N+](=O)[O-])cc1)C(Cl)(Cl)Cl (stereo not shown) [GI-10]
APEC
  MBC: 50 µM (≈ 21.7 µg/mL)
  MIC: 25 µM (≈ 10.8 µg/mL)
APEC O78 [1]
  MIC: 25 µM (≈ 10.8 µg/mL)
APEC serotype O78; efficacy trial, oral
  Mean APEC load, Heart: 3.9 Log CFU/g tissues
  Mean APEC load, Kidney: 3.1 Log CFU/g tissues
  Mean APEC load, Liver: 3.9 Log CFU/g tissues
  Mean APEC load, Lung: 3.7 Log CFU/g tissues
  Mean lesion score in Air sacs: 1.7
  Mean lesion score in Heart: 2.2
  Mean lesion score in Liver: 1.3
  Mean lesion score in Lung: 1
  Cumulative lesion score: 6.2
  Mortality reduction compared to PC group: 41.7%
  % reduction in severity, Air sacs lesions: −17.6%
  % reduction in severity, Heart lesions: −4%
  % reduction in severity, Liver lesions: 20%
  % reduction in severity, Lung lesions: 0%
  log reduction in APEC load, Heart: 1.0 Log CFU/g tissues
  log reduction in APEC load, Kidney: 2.4 Log CFU/g tissues
  log reduction in APEC load, Liver: 0.8 Log CFU/g tissues
  log reduction in APEC load, Lung: 1.4 Log CFU/g tissues
APEC serotype O78; efficacy trial, oral, P ≤ 0.1, log rank test
  Survival of chickens: prolonged the survival
APEC serotype O78
  BWG (body weight gain): 220.8±38.9

## COc1cc(NS(=O)(=O)c2ccc(N)cc2)nc(OC)n1 [SDM, sulfadimethoxine, reference compound]
APEC O78 [2]; GI-7 60 mg/liter, SDM 495.3 mg/liter in drinking water, PC mortality 41.2%
  Mortality reduction compared to PC group: 11.9%
APEC O78 [2]; comparative efficacy trial
  Mean APEC load, Heart: 5.6 Log CFU/g tissues
  Mean APEC load, Kidney: 5.5 Log CFU/g tissues
  Mean APEC load, Liver: 5.0 Log CFU/g tissues
  Mean APEC load, Lung: 6.2 Log CFU/g tissues
APEC O78 [2]; [5]
  log reduction in APEC load, Heart: 2.3 Log CFU/g tissues
  log reduction in APEC load, Kidney: 2.2 Log CFU/g tissues
  log reduction in APEC load, Liver: 2.5 Log CFU/g tissues
  log reduction in APEC load, Lung: 1.9 Log CFU/g tissues
APEC O78 [2]; comparative efficacy, 7 dpi
  Cumulative lesion score: 8.5
APEC O78 [2]; [6]
  Mean lesion score in Air sacs: 2.5
  Mean lesion score in Heart: 2.8
  Mean lesion score in Liver: 2.0
  Mean lesion score in Lung: 1.2
APEC O78 [2]; comparative efficacy, vs PC
  % reduction in severity, Air sacs lesions: 25.7%
  % reduction in severity, Heart lesions: 20.8%
  % reduction in severity, Liver lesions: 19.2%
  % reduction in severity, Lung lesions: 36.9%
APEC O78 [2]; floor trial, P < 0.1
  Survival of chickens: increased the survival
APEC O78 [2]; in vivo
  Overall BWG: 2,408.1 g
  Overall FCR: 1.49
[3]; 2 DPLT
  Residue concentration in muscle: 0.2 ± 0.1 ppm/g tissue
  Residue level in kidney: 1.0 ± 0.2 ppm/g tissue
  Residue level in liver: 0.2 ± 0.04 ppm/g tissue
[3]; 5 DPLT
  Residue concentration in muscle: 0.02 ± 0.02 ppm/g tissue
  Residue level in kidney: 1 ± 0.1 ppm/g tissue
  Residue level in liver: 0.04 ± 0.02 ppm/g tissue
[3]; 31 DPLT
  Residue concentration in muscle: 0.0 ± 0.0 ppm/g tissue
  Residue level in kidney: 0.0 ± 0.0 ppm/g tissue
  Residue level in liver: 0.0 ± 0.0 ppm/g tissue
[4]; commercial broiler, po, mean ± standard deviation, read-out: Peak plasma concentration (Cmax)
  Cmax: 994 ± 167 ng/mL
[4]; commercial broiler, po, postadministration, read-out: Time to maximum concentration (Tmax)
  Tmax: 24 h
[4]; drinking water delivery
  Absorption (time at which absorbed): 2 h
